Where a name gives a salt, the structure may show the parent alone.

The subject of one experiment is IL-8. Nature of the experiment: Suppression of production of inflammatory cytokines: IL-8 in LPS-stimulated human peripheral blood monocytes (ELISA). The class given is cell-based. As to conditions: Homo sapiens, Monocyte, 20 h, supernatant 20 hours after LPS. Here is the method: Suppression of production of inflammatory cytokines
Thirty ml of human peripheral blood added with heparin was placed on Ficol-Paque (15 ml), and centrifuged at 400 G for 40 minutes at room temperature. The obtained monocyte fraction layers were collected and washed three times with E-MEM medium. The cells were adjusted to a final concentration of 0.5×10^5 cells/800 μl with RPMI-1640 medium containing 5% bovine fetal serum (2-mercaptoethanol), and seeded in a 24 well plant by 800 μl. A test sample (100 μl) was added and 100 μl of lipopolysarcharide (LPS, 100 μg/ml) was added one hour later. The supernatant was taken at 20 hours after stimulation with LPS, and amounts of various cytokines were determined using an ELISA kit.
As for `CNCCCCOc1ccc(C(=O)N[C@@H](Cc2ccccc2)C(=O)OC)c(O)c1Cl` [Example 7], the IC50 (in general, the concentration needed to halve the response being measured) was found to be 8 µM. In other words, the single-digit micromolar range.

The compound `CNCCOc1c(Cl)cc(C(=O)N[C@@H](Cc2ccccc2)C(=O)OC)c(O)c1Cl` [Example 11] registered an IC50 of 0.4 µM. This IC50 is about 20-fold lower than that of the compound before. For the compound `CCNCCCCOc1c(Cl)cc(C(=O)N[C@@H](Cc2ccccc2)C(=O)OC)c(O)c1Cl` [Example 16], the midpoint of inhibition, the IC50, lay at 0.03 µM. Still for that read-out and setting: to `CCOC(=O)C(Cc1ccccc1)N(C)C(=O)c1cc(Cl)c(OCCCCN)c(Cl)c1O` (stereo not drawn) [Example 20] belongs 29 µM; to `CCOC(=O)C(Cc1ccccc1)NC(=O)c1cc(Cl)c(OCCCCNC)c(Cl)c1O` (stereo not drawn) [Example 21], below 0.01 µM.

Compound `CCOC(=O)C(Cc1ccccc1)NC(=O)c1cc(Cl)c(OCCCCCCCN)c(Cl)c1O` (stereo not drawn) [Example 26] showed an IC50 of 0.009 µM. `CC(C)COC(=O)[C@H](Cc1ccccc1)NC(=O)c1cc(Cl)c(OCCCCN)c(Cl)c1O` [Example 28]: the IC50 was below 0.01 µM.

Regarding `CNCCCCOc1c(Cl)cc(C(=O)N[C@@H](Cc2ccccc2)C(=O)OCC(C)C)c(O)c1Cl` [Example 29], the IC50 is below 0.01 µM. Consider `CC(C)(C)OC(=O)[C@H](Cc1ccccc1)NC(=O)c1cc(Cl)c(OCCCCN)c(Cl)c1O` [Example 30], for which the 50% inhibitory concentration (IC50) was 0.6 µM. As for `CNCCCCOc1c(Cl)cc(C(=O)N[C@@H](CC2CCCCC2)C(=O)OC)c(O)c1Cl` [Example 34], half-maximal inhibition (IC50) required 2 µM. This IC50 is about 3.3-fold higher than that of the compound before. Compound `CCOC(=O)COC(=O)[C@H](Cc1ccccc1)NC(=O)c1cc(Cl)c(OCCCCN)c(Cl)c1O` [Example 43] displayed a half-inhibitory concentration (IC50) of 0.03 µM. This IC50 is about 67-fold lower than that of the compound before. `CC1CCCC(C)C1OC(=O)[C@H](Cc1ccccc1)NC(=O)c1cc(Cl)c(OCCCCN)c(Cl)c1O` (stereo partly drawn) [Example 47] had an IC50 of 3 µM. This IC50 lies about 100-fold higher than the previous one. As to `CN1CCC(OC(=O)[C@H](Cc2ccccc2)NC(=O)c2cc(Cl)c(OCCCCN)c(Cl)c2O)CC1` [Example 48], the IC50 was determined as 0.2 µM. The same measure, in the same setting: to `NCCCCOc1c(Cl)cc(C(=O)N[C@@H](Cc2ccccc2)C(=O)OC2C3CC4CC(C3)CC2C4)c(O)c1Cl` (stereo partly drawn) [Example 49] belongs 0.02 µM; to `CN(C)CCCCOc1c(Cl)cc(C(=O)N[C@@H](Cc2ccccc2)C(=O)OCc2ccccc2)c(O)c1Cl` [Example 55], below 0.01 µM; to `CC(OC(=O)[C@H](Cc1ccccc1)NC(=O)c1cc(Cl)c(OCCCCN)c(Cl)c1O)N1CCNCC1` (stereo partly drawn) [Example 56], 4 µM. `NCCCCOc1c(Cl)cc(C(=O)N[C@@H](Cc2ccccc2)C(=O)ON=C2CCCCC2)c(O)c1Cl` [Example 57] yielded an IC50 of 0.05 µM.

On to `COC(=O)[C@H](Cc1ccccc1)NC(=O)c1cc(Cl)c(OCCN2CCN(C)CC2)c(Cl)c1O` [Example 58], for which the IC50 came out at 0.02 µM. For `COC(=O)[C@H](Cc1ccccc1)NC(=O)c1cc(Cl)c(OCCN2CCN(C)C(C)C2)c(Cl)c1O` (stereo partly drawn) [Example 63], the 50% inhibitory concentration (IC50) came to 0.1 µM.

`CCOC(=O)C(Cc1ccccc1)NC(=O)c1cc(Cl)c(OCCN2CCNCC2)c(Cl)c1O` (stereo not drawn) [Example 64] gave an IC50 of 0.05 µM. For the compound `CCOC(=O)C(Cc1ccccc1)NC(=O)c1cc(Cl)c(OCCCN2CCNCC2)c(Cl)c1O` (stereo not drawn) [Example 67], half-maximal inhibition (IC50) required 0.05 µM. That is a double-digit nanomolar value. Same read-out and setting: to `CCOC(=O)C(Cc1ccccc1)NC(=O)c1cc(Cl)c(OCCCN2CCN(C)CC2)c(Cl)c1O` (stereo not drawn) [Example 68] belongs 0.001 µM. In turn, `CCOC(=O)C(Cc1ccccc1)NC(=O)c1cc(Cl)c(OCCC2CCNCC2)c(Cl)c1O` (stereo not drawn) [Example 69] had a half-maximal inhibitory concentration (IC50) below 0.001 µM. Turning to `CCOC(=O)C(Cc1ccccc1)NC(=O)c1cc(Cl)c(OCCC2CCN(C)CC2)c(Cl)c1O` (stereo not drawn) [Example 70], half-maximal inhibition (IC50) required 0.006 µM. `CCOC(=O)C(Cc1ccccc1)NC(=O)c1cc(Cl)c(OCCCCNC)cc1O` (stereo not drawn) [Example 71] returned an IC50 of 0.04 µM.

For `CCOC(=O)C(Cc1ccccc1)NC(=O)c1cc(Cl)c(OCCCCN(C)C)cc1O` (stereo not drawn) [Example 72], the IC50 is 0.1 µM. The compound `CCOC(=O)C(Cc1ccccc1)NC(=O)c1cc(Br)c(OCCCCN)cc1O` (stereo not drawn) [Example 74] came in with an IC50 of 0.07 µM. In turn, `CNCCCCOc1cc(O)c(C(=O)N[C@@H](Cc2ccccc2)C(=O)OC)cc1C` [Example 76] had an IC50 of 0.3 µM. Compared with the last compound, the IC50 is about 4.3-fold higher.

Consider `CCOC(=O)C(Cc1ccccc1)NC(=O)c1cc(C)c(OCCCCNC)c(C)c1O` (stereo not drawn) [Example 77], for which half-maximal inhibition (IC50) was put at 3 µM. As for `CNCCCCOc1c(Cl)cc(C(=O)N[C@@H](Cc2ccccc2)C(=O)OCCN(C(C)C)C(C)C)c(O)c1Cl` [Example 85], 0.07 µM corresponded to half-maximal inhibition (IC50). Still for that read-out and setting: to `COC(=O)[C@H](Cc1ccccc1)NC(=O)c1cc(Cl)c(OCCCCO)c(Cl)c1O` [Example 87] belongs 0.2 µM; to `CNCCCCCc1ccc(C(=O)N[C@@H](Cc2ccccc2)C(=O)OC)c(O)c1` [Example 89], 0.6 µM; to `CNCCCCCc1c(Cl)cc(C(=O)N[C@@H](Cc2ccccc2)C(=O)OC)c(O)c1Cl` [Example 91, N-[3,5-Dichloro-2-hydroxy-4-(5-methylaminopentyl)benzoyl]-L-phenylalanine methyl ester hydrochloride], 0.001 µM. Still for that read-out and setting: to `CCOC(=O)C(Cc1ccccc1)NC(=O)c1cc(Cl)c(CCCCCN(C)C)cc1O` (stereo not drawn) [Example 94] belongs 1 µM; to `CCOC(=O)C(Cc1ccccc1)NC(=O)c1cc(Cl)c(CCCC2CCN(C)CC2)c(Cl)c1O` (stereo not drawn) [Example 100], 0.001 µM.

`CCOC(=O)C(Cc1ccccc1)NC(=O)c1cc(Cl)c(CCCC2CCNCC2)c(Cl)c1O` (stereo not drawn) [Example 101]: the IC50 stood at 0.003 µM. This IC50 lies about 3-fold higher than the previous one. On the same count and under the same terms, to `CCOC(=O)C(Cc1ccccc1)NC(=O)c1cc(Cl)c(CCCN2CCNCC2)c(Cl)c1O` (stereo not drawn) [Example 102] belongs 0.002 µM; to `CCOC(=O)C(Cc1ccccc1)NC(=O)c1cc(Cl)c(CCCN2CCC(N)CC2)c(Cl)c1O` (stereo not drawn) [Example 103], 0.7 µM. `CNCCCCOc1c(Cl)cc(C(=O)N[C@@H](Cc2ccccc2)C(=O)OC)c(OC(=O)COC(C)=O)c1Cl` [Example 110]: the IC50 is below 0.01 µM. Compound `COC(=O)[C@H](Cc1ccccc1)NC(=O)c1cc(Cl)c(OCCN2CCNC(C)C2)c(Cl)c1OC(C)=O` (stereo partly drawn) [Example 122] came in with an IC50 below 0.01 µM. The compound `CCOC(=O)C(Cc1ccccc1)NC(=O)c1cc(Cl)c(OCCN2CCN(C)CC2)c(Cl)c1OC(C)=O` (stereo not drawn) [Example 125] gave an IC50 of 0.01 µM. As to `CC1CN(CCOc2c(Cl)cc(C(=O)N[C@@H](Cc3ccccc3)C(=O)O)c(O)c2Cl)CCN1` (stereo partly drawn) [Example 129], 2 µM corresponded to half-maximal inhibition (IC50). `CN(C)CCCCCc1c(Cl)cc(C(=O)N[C@@H](Cc2ccccc2)C(=O)O)c(O)c1Cl` [Example 133]: the IC50 is 0.2 µM. This IC50 lies about 10-fold lower than the previous one. Regarding `CNCCCCNc1c(Cl)cc(C(=O)N[C@@H](Cc2ccccc2)C(=O)OC)c(O)c1Cl` [Example 136, N-[3,5-Dichloro-2-hydroxy-4-(4-methylaminobutylamino)benzoyl]-L-phenylalanine methyl ester dihydrochloride], 0.2 µM corresponded to half-maximal inhibition (IC50). On the same count and under the same terms, to `NCCCCOc1c(Cl)cc(C(=O)N[C@@H](Cc2ccccc2)C(N)=O)c(O)c1Cl` [Example 139] belongs 4 µM.

The same experiment, now with this note: Monocyte, supernatant 20 hours after LPS.
`CN1CCN(CCOc2c(Cl)cc(C(=O)N[C@@H](Cc3ccccc3)C(=O)O)c(O)c2Cl)CC1` [Example 134] gave an IC50 of 0.2 µM.

Still in this experiment, the particulars now being: supernatant 20 hours after LPS, listed as Example No. 88, hydrochloride.
For `CNCCCCc1ccc(C(=O)N[C@@H](Cc2ccccc2)C(=O)OC)c(O)c1` [Example 88, N-[2-Hydroxy-4-(4-methylaminobutyl)benzoyl]-L-phenylalanine methyl ester hydrochloride], the midpoint of inhibition, the IC50, lay at 3 µM. That is a single-digit micromolar value.

The experiment is the same for the next values; noted with them: supernatant 20 hours after LPS, listed as Example No. 90.
`CNCCCCc1ccc(C(=O)N[C@@H](Cc2ccccc2)C(=O)OC)c(O)c1` [Example 90] showed an IC50 of 0.6 µM.

Values taken from patent USRE39088E1, “Amide compounds and use of the same” (Japan Tobacco, Inc., priority 1995, dated 2006).
